{"source": "paper PMC5633740", "about": "“Identification of YfiH and the Catalase CatA As Polyphenol Oxidases of Aeromonas media and CatA as a Regulator of Pigmentation by Its Peroxyl Radical Scavenging Capacity” (Frontiers in Microbiology, 2017)", "molecular_target": "T1, CatA (PPO2; catalase; His6-tagged CatA) (Aeromonas media, UniProt A0AAE7AJ24)", "T1 construct": "gene E4188_09760; full ORF (1,449 bp) in pET-26b(+) NdeI/XhoI, His6-tagged, expressed in E. coli BL21(DE3), Ni-NTA; 55 kDa peak by gel filtration", "T1 sequence (A0AAE7AJ24 entry or part of it)": "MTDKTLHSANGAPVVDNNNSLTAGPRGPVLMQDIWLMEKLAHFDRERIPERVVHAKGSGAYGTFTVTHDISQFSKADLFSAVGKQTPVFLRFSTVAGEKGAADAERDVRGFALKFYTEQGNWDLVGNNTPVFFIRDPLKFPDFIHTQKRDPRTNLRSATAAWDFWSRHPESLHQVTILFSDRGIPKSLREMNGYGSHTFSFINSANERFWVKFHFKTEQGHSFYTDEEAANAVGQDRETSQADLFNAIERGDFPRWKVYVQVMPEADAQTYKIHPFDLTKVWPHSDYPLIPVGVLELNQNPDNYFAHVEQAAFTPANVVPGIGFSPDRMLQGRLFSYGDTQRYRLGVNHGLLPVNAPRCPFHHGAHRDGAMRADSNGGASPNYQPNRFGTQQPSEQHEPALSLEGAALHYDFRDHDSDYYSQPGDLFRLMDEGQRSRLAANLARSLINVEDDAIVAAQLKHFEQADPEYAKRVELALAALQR", "test": "native-PAGE activity staining of purified protein", "type": "biochemical", "settings": "5 mM L-DOPA, 50 mM Tris-HCl pH 8.0, 30 °C, 30 min; qualitative", "data": [{"molecule": "N[C@@H](Cc1ccc(O)c(O)c1)C(=O)O", "note": "[L-DOPA, L-3,4-dihydroxyphenylalanine]", "values": [{"measurement": "native-PAGE activity staining of purified protein", "result": "All His6-tagged proteins exhibited both catalase and PPO activity"}]}]}
